A short description of data set [1]: Trans-mucosal permeation test (vertical diffusion system). It counts as in vitro ADME. As to conditions: HBSS, donor-receiver chambers, 0-40 min; equivalent to 50 mg Sild; result in words. As to the method: Trans-mucosal permeation profile of Sild was evaluated in vitro by using a specific device according to [Delvadia et al. (2012)] appropriately modified. Briefly, the device consisted in a vertical diffusion system featured by donor–receiver chambers separated by a disposable cellulose–acetate membrane (pore 0.45 μm). The donor cell contained 1.5 ml of HBSS, whereas the receiver chamber was part of a closed recirculation circuit of 30 ml including the volumes of tubing and reservoir. Sampling was performed from receiver chamber reservoir at the time intervals of 0, 5, 10, 20, 30, and 40 min and replaced by an equivalent volume of fresh HBSS. The samples were analyzed by HPLC-UV for drug content ([Fejős et al., 2014]). Data were normalized on the highest permeated Sild concentration observed for pure Sild citrate. Tests were performed in triplicate and results were reported as mean value ± standard deviation.

For data set [2] the following is noted: cited from earlier work.
Details of data set [3]: method as in Zayed et al., 2012; Sun et al., 2014. As to conditions: result in words; ref Zayed et al., 2012; Sun et al., 2014; cited from earlier work.

Here are results for three compounds from PMC5808105, “Sublingual Administration of Sildenafil Oro-dispersible Film: New Profiles of Drug Tolerability and Pharmacokinetics for PDE5 Inhibitors” (Frontiers in Pharmacology, 2018).

The term bioavailability denotes dose-corrected exposure relative to a reference, in per cent.

Turning to `CCCc1nn(C)c2c(=O)[nH]c(-c3cc(S(=O)(=O)N4CCN(C)CC4)ccc3OCC)nc12.O=C(O)CC(O)(CC(=O)O)C(=O)O` [Sild citrate], the “permeation of Sild through cellulose acetate membrane” value in data set [1] was “free and fast diffusion between the two chambers”.

As for `CCCc1nn(C)c2c(=O)[nH]c(-c3cc(S(=O)(=O)N4CCN(C)CC4)ccc3OCC)nc12` [Sild, Sildenafil], the “time to peak plasma concentration” value in data set [2] (after oral administration, ref Gupta et al., 2005) is on record as 0.5 to 2 h. Besides, in data set [2] (ref Gupta et al., 2005), the oral bioavailability is listed as 38–41%. The water solubility result in data set [3] is “low water solubility”.

`CCCc1nc(C)c2c(=O)[nH]c(-c3cc(S(=O)(=O)N4CCN(CC)CC4)ccc3OCC)nn12` [Vardenafil]: in data set [2] (ref Center for Drug Evaluation and Research, 2003), the bioavailability is reported as approximately 15%.
